Source: ChEMBL document CHEMBL1201862, “PubChem BioAssay data set” (2004)
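Method: 48-hour compound exposure of cells in 96-well plates, five concentrations, linear interpolation of endpoints. At the GI50, growth is halved.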 Activity calls are given as the source filed them. Cut-off read from the data, not from the text of the source: active = GI50 up to about 1.1 µM and inactive = higher.

Legend:
Assay in all cases: NCI anticancer screen, dose series, 48 h
[1] = tested on: ACHN
[2] = tested on: EKVX
[3] = tested on: SK-OV-3
[4] = tested on: CCRF-CEM
[5] = tested on: HT-29
[6] = tested on: LOX IMVI
[7] = tested on: COLO 205
[8] = tested on: HCT-15
[9] = tested on: OVCAR-4
[10] = tested on: SN12C
[11] = tested on: 786-0
[12] = tested on: Malme-3M
[13] = tested on: KM12
[14] = tested on: SK-MEL-5
[15] = tested on: UACC-62
[16] = tested on: MDA-MB-435
[17] = tested on: DU-145
[18] = tested on: OVCAR-8
[19] = tested on: HOP-92
[20] = tested on: MDA-N
[21] = tested on: OVCAR-3
[22] = tested on: A498
[23] = tested on: MOLT-4
[24] = tested on: NCI/ADR-RES
[25] = tested on: BT-549
[26] = tested on: SW-620
[27] = tested on: SK-MEL-28
[28] = tested on: HCT-116
[29] = tested on: M14
[30] = tested on: HL-60
[31] = tested on: SK-MEL-2
[32] = tested on: NCI-H226
[33] = tested on: HCC 2998
[34] = tested on: RXF 393
[35] = tested on: NCI-H522
[36] = tested on: SF-268
[37] = tested on: UACC-257
[38] = tested on: SF-539
[39] = tested on: NCI-H460
[40] = tested on: T47D
[41] = tested on: IGROV-1
[42] = tested on: HOP-62
[43] = tested on: K562
[44] = tested on: CAKI-1
[45] = tested on: Hs-578T
[46] = tested on: SNB-19
[47] = tested on: U-251
[48] = tested on: SF-295
[49] = tested on: MCF7
[50] = tested on: MDA-MB-231
[51] = tested on: PC-3
[52] = tested on: A549
[53] = tested on: SR
[54] = tested on: OVCAR-5
[55] = tested on: TK-10

`Cc1ccc(NCc2nnc3c(-c4ccccc4)nc4ccccc4n23)cc1` was tested, and the GI50 [1] was 23.9 µM (inactive), the GI50 [2] was 18.7 µM (inactive) and the GI50 [3] was 40.6 µM (inactive). For the same compound, the GI50 [4] was 15.1 µM (inactive), the GI50 [5] was 21.5 µM (inactive) and the GI50 [6] was 23.5 µM (inactive). The GI50 [7] was 32.8 µM (inactive), the GI50 [8] was 38.5 µM and the GI50 [9] was 28.2 µM (inactive). For the same compound, the GI50 [10] was 32.6 µM (inactive), the GI50 [11] was 27.9 µM (inactive) and the GI50 [12] was 37.2 µM (inactive). For the same compound, the GI50 [13] was 22.8 µM (inactive), the GI50 [14] was 14.4 µM (inactive) and the GI50 [15] was 33.7 µM (inactive). For the same compound, the GI50 [16] was 29.6 µM (inactive), the GI50 [17] was 25.2 µM (inactive) and the GI50 [18] was 24 µM (inactive). The GI50 [19] was 16 µM (inactive), the GI50 [20] was 26.2 µM (inactive) and the GI50 [21] was 49.7 µM (inactive). For the same compound, the GI50 [22] was 32.6 µM (inactive), the GI50 [23] was 16 µM (inactive) and the GI50 [24] was 50.9 µM (inactive). For the same compound, the GI50 [25] was 37.4 µM (inactive), the GI50 [26] was 39.3 µM (inactive) and the GI50 [27] was 64 µM (inactive). The GI50 [28] was 21.5 µM (inactive), the GI50 [29] was 37.6 µM (inactive) and the GI50 [30] was 14.4 µM (inactive). For the same compound, the GI50 [31] was 24.8 µM (inactive), the GI50 [32] was 44 µM (inactive) and the GI50 [33] was 44.6 µM (inactive). The GI50 [34] was 34.8 µM (inactive), the GI50 [35] was 16 µM (inactive) and the GI50 [36] was 43.6 µM (inactive). The GI50 [37] was 36 µM (inactive), the GI50 [38] was 60.5 µM (inactive) and the GI50 [39] was 28.8 µM (inactive). The GI50 [40] was 3.36 µM (inactive), the GI50 [41] was 17.5 µM (inactive) and the GI50 [42] was 46.1 µM (inactive). For the same compound, the GI50 [43] was 13 µM (inactive), the GI50 [44] was 30.1 µM (inactive) and the GI50 [45] was 50.7 µM (inactive). The GI50 [46] was 38 µM (inactive), the GI50 [47] was 16.7 µM (inactive) and the GI50 [48] was 33.7 µM (inactive). The GI50 [49] was 23.6 µM (inactive), the GI50 [50] was 24.5 µM (inactive) and the GI50 [51] was 19.1 µM (inactive). For the same compound, the GI50 [52] was 23.2 µM (inactive), the GI50 [53] was 13 µM (inactive) and the GI50 [54] was 39.9 µM (inactive). For the same compound, the GI50 [55] was 43.9 µM (inactive).
